According to patent US20150105324A1, “COMPOSITIONS AND METHODS FOR TREATING PTSD AND RELATED DISEASES” (INDIANA UNIVERSITY RESEARCH AND TECHNOLOGY CORPORATION, priority 2012, published 2015):

Legend:
[1] = test system: rats (conditioned fear, percent time freezing); assay: Conditioned Fear Test; assay type: in vivo, rat; settings: extinction on day 2, vs vehicle
[2] = test system: cGMP production induced by a NO donor; settings: (Florio 2009); cited from earlier work
[3] = test system: NMDA-induced increase of cGMP in primary cultured hippocampal neurons; assay: NMDA-induced increase in cGMP in primary rat hippocampal neurons; assay type: cell-based
Experimental: (§1) NMDA-induced increase in cGMP in primary rat hippocampal neurons Neonatal rat hippocampal cultures were prepared according to Brewer (1997). Cells were cultured for 14-21 days before testing. NMDA ([…]) increased cGMP (measured by a cGMP-RIA kit from Perkin-Elmer) within 2-15 min of addition. The NMDA receptor antagonist, MK-801, and a NOS catalytic inhibitor, L-NAME, were used as positive controls.
as §1, with “neurons.” for “neurons”

[4] = test system: rats (conditioned fear, percent time freezing); assay: Conditioned Fear Test; assay type: in vivo, rat; settings: for acquisition of conditioned fear / fear extinction: compared to respective vehicle groups; for fear extinction: post conditioning treatment; for percent time freezing on test day 1 / percent time freezing during acquisition / percent time freezing during recall: rats; for percent time freezing on test day 1: after fear conditioning, FIGS. 1 and 2; for percent time freezing on test day 1 / percent time freezing during acquisition: vs vehicle; for percent time freezing during acquisition: acquisition of fear conditioning; for percent time freezing during recall: recall on day 3; for conditioned fear response 24 hours later (day 3 fear recall): treatment 5-60 min following the day 2 conditioning session
Experimental: Conditioned Fear Test. The conditioning chamber (Hamilton-Kinder, Paolo Alto, Calif.) is equipped to present light and tone cues along with a video camera set up to record behavior. The entire chamber is enclosed in a sound attenuated box. The animals went through 5 days of experimentation: Day 1 Habituation; Day 2 Conditioning; Day 3 Fear recall testing; Day 4 Extinction Training; and Day 5 Extinction Recall Test. Day 1 Habituation: Rats are exposed to the chambers for 10 min. Day 2 Conditioning: Rats are given five presentations of the tone CS (4 kHz, 80 dB, 20 sec) each co-terminating with a 0.8 mA foot shock lasting 0.5-s (US). The first CS-US pairing is presented 120 s into the session and the inter-trial interval (ITI) between CS-US presentations is 105 s on average (range 90-120). Conditioning sessions last about 11 minutes. Day 3 Fear recall tests: Twenty-four hours following the acquisition training, rats are given five 20-s CS presentations in the absence of the US. The first tone is presented 120 s into the session and the inter-trial interval (ITI) between CS-US presentations is 105 s on average (range 90-120). Percent time spent freezing is measured during each tone as an indication of fear recall. Recall test sessions last about 11 minutes. Extinction Training: Rats are exposed to 20 presentations of the CS in the absence of the US (mean ITI 180 s, range 120 to 240 s). Extinction Recall Test: 10 presentations of the CS only (mean ITI 180 s, range 120 to 240 s) are given 24 hrs after extinction.

rats [5] = assay: Social Interaction test; assay type: in vivo, rat; settings: i.p. 60 min prior; IC87201 4 mg/kg, ZL006 10 mg/kg; vs vehicle
Experimental: Social Interaction. Adult male rats are evaluated in a conventional social interaction assay. Compounds described herein are evaluated compared to vehicle controls. Animals are observed for duration of time spent in regions of open field test (inner region versus outer region) and line crossings during a 60 min period following a systemic injection of vehicle or a test compound.
(§2) Results. Animals are systemically pre-treated by i.p. injections with two different agents that are known to disrupt the nNOS-PSD95 interaction, IC87201 (4 mg/kg) and ZL006 (10 mg/kg), 60 min prior to a 5 min open field test immediately followed by a 5 min social interaction test. […] (Inner time F(2,17)=0.4, p=0.678; Outer time F(2,17)=0.4, p=0.678; Line crossings F(2,17)=1.0, p=0.405; n=6/group).

[6] = test system: cortical neurons stimulated with glutamate and glycine; assay: Cell viability (LDH release) assay, glutamate/glycine exposed neurons; assay type: cell-based; settings: FIG. 7; for glutamate receptor induced cell death: primary neuronal slices
Experimental: Cell viability assays. An LDH release assay was used for the measurement of cell viability. Cortical neurons were stimulated with glutamate and glycine in Mg^2+-free Locke's buffer. The neurons were washed with the buffer and incubated in cell-culture media for 12 h. Subsequently, LDH in the cell-culture media and total LDH after cell lysis were measured according to the manufacturer's instructions. LDH release was defined as ratio of LDH in the media to total LDH and normalized to the fold of control.

[7] = target: PSD95-cypin protein-protein interaction (Homo sapiens, UniProt P78352); settings: plate binding assay (Florio 2009); cited from earlier work
rats [8] = assay: Open Field Test of Anxiety; assay type: in vivo, rat; settings: i.p. 60 min prior to 5 min test; IC87201 4 mg/kg, ZL006 10 mg/kg; vs vehicle
Experimental: Open Field Test of Anxiety. Adult male rats are evaluated in a conventional open field test. Compounds described herein are evaluated compared to vehicle controls. Animals are observed for duration of time spent in regions of the open field (inner region versus outer region) and line crossings during a […] period following a systemic injection of vehicle or a test compound.
as §2

nNOS-CAPON interaction = target: T1, nNOS-CAPON interaction (Mus musculus, UniProt Q9Z0J4); assay: Co-immunoprecipitation of nNOS-CAPON in ischemic cortexes; assay type: in vivo; settings: 1.5 mg kg-1 i.v. 15 min before MCAO
T1 construct: from tissue; host or cells: mouse ischemic cortex
Experimental: (§3) Coimmunoprecipitation. Neurons were washed in PBS twice, and then lysed in 400 μl buffer A (50 mM Tris-HCl [pH 7.4], 150 mM NaCl, 1 mM EDTA-Na, 1% NP-40, 0.02% sodium azide, 0.1% SDS, 0.5% sodium deoxycholate, 1% PMSF, 1‰ aprotinin, 1‰ leupeptin, and 0.5‰ pepstatin A). The lysates were centrifugated at 12,000×g for 15 min at 4° C. The OHSCs or cortex of mice was homogenized in ice-cold lysis buffer A. After lysis for 15 min, samples were centrifuged at 20,000×g for 15 min. The supernatant were preincubated for 1 h at 4° C. with 0.025 ml of protein G-sepharose beads (Sigma-Aldrich) and then centrifuged to remove proteins that adhered nonspecifically to the beads and obtain the target supernatant for following IP experiment. Protein G Sepharose beads were incubated with antibodies (rabbit antibody to nNOS, 1:100, Affinity BoReagents; rabbit antibody to PSD95, 1:100, Cell Signaling Technology; and rabbit antibody to NR2B antibody, 1:200, Chemicon) for 3-4 h. The antibodies-conjugated protein G-sepharose beads and the target supernatant were added for incubation overnight. Immune complexes were isolated by centrifugation, washed 4 times with 0.05 M HEPES buffer, pH 7.1, containing 0.15% Triton X-100, 0.15 M NaCl, and 0.1×10^−3 M sodium orthovanadate, and bound proteins were eluted by heating at 100° C. in loading buffer. Proteins were analyzed by immunoblotting. […]

PSD95-SynGAP interaction = target: T2, PSD95-SynGAP interaction (Mus musculus, UniProt Q62108); assay: Co-immunoprecipitation of PSD95-SynGAP in ischemic cortexes; assay type: in vivo; settings: 1.5 mg kg-1 i.v. 15 min before MCAO
T2 construct: from tissue; host or cells: mouse ischemic cortex
Experimental: as §3

[9] = test system: NOS (total NOS, nNOS) in homogenates from the cortex of mice; assay: NOS activity assay; assay type: biochemical, mouse; settings: 10 μM, 30 min
Experimental: NOS activity assay. Nitric oxide synthase activities in the hippocampus were measured using a conventional assay. Briefly, the hippocampus was homogenized in ice-cold PBS, pH 7.4, and centrifuged at 10,000 g for 20 min at 4° C. The supernatant was ultracentrifuged at 100,000×g for 15 min at 4° C. using a 300 kDa molecular weight cut-off filter by centrifugation. NOS activity in the filtrates was measured using a commercially available kit (Calbiochem). […] Neuronal NOS activity was computed by subtracting the iNOS activity from the total NOS activity with the inhibited fraction of eNOS. Inducible NOS activity was measured by adding EGTA at 3 mM to chelate free Ca^2+ from the reaction mixture. NOS activities were expressed as unit (U). One U was defined as nanomoles of NO formed in 1 min by 1 mg of protein.

nNOS-PSD95 complex = assay: Co-immunoprecipitation of nNOS-PSD95 complex in neuronal cultures; assay type: cell-based
Experimental: (§4) Co-immunoprecipitation. Cultured neurons, organotypic hippocampal slice cultures (OHSCs) or the cortices of mice were lysed and centrifuged. The supernatant was preincubated with protein G-Sepharose beads (Sigma-Aldrich) and then centrifuged to obtain the target supernatant. The antibodyconjugated protein G-Sepharose beads were incubated with the target supernatant, centrifuged, washed and heated the beads to elute bound proteins and analyzed proteins by immunoblotting.
(§5) Coimmunoprecipitation. Neurons were washed in PBS twice, and then lysed in 400 μl buffer A (50 mM Tris-HCl [pH 7.4], 150 mM NaCl, 1 mM EDTA-Na, 1% NP-40, 0.02% sodium azide, 0.1% SDS, 0.5% sodium deoxycholate, 1% PMSF, 1‰ aprotinin, 1‰ leupeptin, and 0.5‰ pepstatin A). The lysates were centrifugated at 12,000×g for 15 min at 4° C. […] Proteins were analyzed by immunoblotting.
(§6) Samples were immunoprecipitated and analyzed by western blotting with the indicated antibodies (IP for nNOS, and WB for PSD-95), and analyzed for (a) nNOS-PSD-95 complex amounts in the cortex of mice subjected to 90 min MCAO and 30 min reperfusion (n=3), as shown in FIG. 5A in wild type mice after MCAO, and (b) nNOS-PSD-95 complex amounts in neurons exposed to 50 μM glutamate with 10 μM glycine for 30 min (n=3). […]

[10] = 1.5 mg/kg i.v., 15 and 60 min after dosing; FIG. 8 (Zhou 2010); cited from earlier work
nNOS-PSD95 interaction = target: T3, nNOS-PSD95 interaction (Mus musculus, UniProt Q9Z0J4); assay: Co-immunoprecipitation of nNOS-PSD95 complex in cortex of mice (MCAO/reperfusion); assay type: in vivo
T3 construct: from tissue; host or cells: mouse cortex
Experimental: as §4, §5, §6

[11] = test system: NMDARs EPSCs of CA1 pyramidal neurons; assay: Electrophysiological recordings in hippocampal slices; assay type: cell-based; settings: 1.0 μM, rat hippocampal slices, low-Mg2+ ACSF
From the text: Electrophysiological recordings. […] Briefly, 3 weeks old rats were anesthetized with ethyl ether and decapitated, and whole hippocampus was removed from the brain. Coronal brain slices (350 μm thickness) were cut using a vibrantly blade microtome in ice-cold artificial CSF (ACSF) containing the following (in mM) 126 NaCl, 2.5 KCl, 1 MgCl2, 1 CaCl2, 1.25 KH2PO4, 26 NaHCO3, and 20 glucose. ACSF was bubbled continuously with carbogen (95% O2 and 5% CO2) to adjust the pH to 7.4. Fresh slices were incubated in chamber with carbogenated ACSF and recovered at 34° C. for at least 1.5 h before they were transferred to recording chamber. For the recording of EPSCs, the individual slices were transferred to a recording chamber, and CA1 pyramidal neurons were viewed under upright microscopy (Olympus). […] Excitatory postsynaptic responses of CA1 pyramidal neurons were evoked by stimulating the Schaffer fibers through a constant-current pulse delivered by a bipolar tungsten electrode and recorded with Axopatch-200B amplifier (Molecular Devices). […] The baseline was recorded at least 10 min to ensure the stability of the response. Data were collected with pClamp 9.2 software and analyzed using Clampfit 9.2 (Molecular Devices).

T3 sequence (Q9Z0J4 whole entry, the tested form may be a part): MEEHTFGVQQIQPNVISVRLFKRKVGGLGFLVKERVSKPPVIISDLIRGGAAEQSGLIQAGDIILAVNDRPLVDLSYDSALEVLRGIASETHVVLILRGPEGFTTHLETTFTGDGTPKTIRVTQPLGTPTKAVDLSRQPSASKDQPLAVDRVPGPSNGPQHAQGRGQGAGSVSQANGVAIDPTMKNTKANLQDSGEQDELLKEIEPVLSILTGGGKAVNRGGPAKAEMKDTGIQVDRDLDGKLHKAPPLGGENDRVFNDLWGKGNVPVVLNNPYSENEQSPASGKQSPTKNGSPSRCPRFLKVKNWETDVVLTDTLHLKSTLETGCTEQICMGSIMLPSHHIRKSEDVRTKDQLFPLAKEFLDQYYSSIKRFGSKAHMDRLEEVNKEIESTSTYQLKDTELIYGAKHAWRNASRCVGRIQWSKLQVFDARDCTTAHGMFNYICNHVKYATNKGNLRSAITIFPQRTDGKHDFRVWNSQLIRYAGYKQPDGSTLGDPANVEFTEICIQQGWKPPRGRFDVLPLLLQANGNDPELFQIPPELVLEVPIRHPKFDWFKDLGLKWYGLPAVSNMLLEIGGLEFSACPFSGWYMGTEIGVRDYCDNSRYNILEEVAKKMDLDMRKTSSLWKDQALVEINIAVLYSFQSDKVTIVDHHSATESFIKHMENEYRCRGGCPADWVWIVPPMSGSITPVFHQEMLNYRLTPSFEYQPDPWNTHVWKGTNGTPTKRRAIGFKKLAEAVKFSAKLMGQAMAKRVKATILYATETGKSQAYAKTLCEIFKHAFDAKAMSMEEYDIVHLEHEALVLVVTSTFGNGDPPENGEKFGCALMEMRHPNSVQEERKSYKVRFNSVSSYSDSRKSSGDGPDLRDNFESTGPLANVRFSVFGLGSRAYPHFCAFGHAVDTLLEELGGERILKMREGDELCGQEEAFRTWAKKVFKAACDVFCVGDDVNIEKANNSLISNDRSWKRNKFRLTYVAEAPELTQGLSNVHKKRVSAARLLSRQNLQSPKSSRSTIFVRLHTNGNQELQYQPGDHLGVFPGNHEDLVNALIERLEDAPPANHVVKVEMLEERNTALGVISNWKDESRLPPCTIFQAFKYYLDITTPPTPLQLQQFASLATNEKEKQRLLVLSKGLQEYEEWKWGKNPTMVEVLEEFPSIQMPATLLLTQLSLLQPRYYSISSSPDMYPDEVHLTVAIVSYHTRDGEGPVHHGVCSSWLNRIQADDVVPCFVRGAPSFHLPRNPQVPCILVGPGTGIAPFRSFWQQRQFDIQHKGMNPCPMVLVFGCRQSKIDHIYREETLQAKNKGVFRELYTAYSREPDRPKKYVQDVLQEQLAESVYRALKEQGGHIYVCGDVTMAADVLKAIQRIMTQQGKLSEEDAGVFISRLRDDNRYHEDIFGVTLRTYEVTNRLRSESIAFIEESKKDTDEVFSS
T1 sequence (Q9Z0J4 whole entry): as the sequence (Q9Z0J4 whole entry, the tested form may be a part) above
PSD95-cypin protein-protein interaction, sequence (P78352 whole entry): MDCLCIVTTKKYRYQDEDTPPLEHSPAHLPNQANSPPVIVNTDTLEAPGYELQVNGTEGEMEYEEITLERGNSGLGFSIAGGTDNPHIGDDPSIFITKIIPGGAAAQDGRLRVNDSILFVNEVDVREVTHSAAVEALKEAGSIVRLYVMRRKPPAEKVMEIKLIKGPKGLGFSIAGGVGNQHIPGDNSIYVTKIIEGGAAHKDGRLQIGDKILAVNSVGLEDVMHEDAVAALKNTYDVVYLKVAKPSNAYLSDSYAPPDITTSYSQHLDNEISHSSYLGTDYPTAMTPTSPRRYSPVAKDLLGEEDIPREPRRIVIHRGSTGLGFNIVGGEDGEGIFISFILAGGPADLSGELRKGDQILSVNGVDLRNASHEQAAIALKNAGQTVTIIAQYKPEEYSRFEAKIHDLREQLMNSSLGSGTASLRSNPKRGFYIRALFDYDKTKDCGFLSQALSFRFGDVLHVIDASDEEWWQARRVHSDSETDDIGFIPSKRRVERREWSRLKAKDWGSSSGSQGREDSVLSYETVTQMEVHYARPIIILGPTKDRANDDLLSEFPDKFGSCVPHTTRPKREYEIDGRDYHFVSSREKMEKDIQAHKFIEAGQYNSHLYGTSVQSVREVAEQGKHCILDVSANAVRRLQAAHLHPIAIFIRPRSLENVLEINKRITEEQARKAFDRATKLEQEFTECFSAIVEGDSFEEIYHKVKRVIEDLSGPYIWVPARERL
T2 sequence (Q62108 whole entry): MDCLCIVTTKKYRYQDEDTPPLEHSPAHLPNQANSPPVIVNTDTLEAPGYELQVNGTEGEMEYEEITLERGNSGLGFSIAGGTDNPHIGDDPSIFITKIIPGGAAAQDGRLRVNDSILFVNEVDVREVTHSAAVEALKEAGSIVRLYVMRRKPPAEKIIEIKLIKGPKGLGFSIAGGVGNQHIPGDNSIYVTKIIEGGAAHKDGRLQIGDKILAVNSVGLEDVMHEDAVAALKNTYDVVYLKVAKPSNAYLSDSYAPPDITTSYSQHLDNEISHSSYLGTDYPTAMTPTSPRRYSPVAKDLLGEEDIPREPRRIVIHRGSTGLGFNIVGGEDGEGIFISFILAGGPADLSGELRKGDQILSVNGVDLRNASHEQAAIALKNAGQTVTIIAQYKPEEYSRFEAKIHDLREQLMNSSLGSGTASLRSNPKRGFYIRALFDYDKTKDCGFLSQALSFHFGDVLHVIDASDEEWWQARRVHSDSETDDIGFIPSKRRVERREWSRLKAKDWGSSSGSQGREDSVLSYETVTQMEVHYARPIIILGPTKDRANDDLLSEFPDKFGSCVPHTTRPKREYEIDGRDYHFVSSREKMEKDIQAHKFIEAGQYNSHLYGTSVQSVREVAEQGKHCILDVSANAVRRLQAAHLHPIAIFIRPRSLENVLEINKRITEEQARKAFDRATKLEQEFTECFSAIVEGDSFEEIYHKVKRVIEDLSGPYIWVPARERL

SMILES | percent time freezing during extinction [1] | acquisition of conditioned fear [4] | fear extinction [4] | percent time freezing on test day 1 [4] | percent time freezing during acquisition [4] | percent time freezing during recall ([4]; data not shown) | conditioned fear response 24 hours later (day 3 fear recall) [4] | social interaction duration (rats [5]) | glutamate receptor induced cell death [6] | duration of time spent in regions of the open field (inner region versus outer region) (rats [8]) | number of line crossings (rats [8]) | also measured
Oc1c(Cl)cc(Cl)cc1CNc1ccc2[nH]nnc2c1 [IC87201, 2-((1H-benzo[d][1,2,3]triazol-5-ylamino)methyl)-4,6-dichlorophenol] | Neither IC8701 nor ZL006 altered the percent time freezing | identical acquisition of conditioned fear | normal patterns of fear extinction | reduced the percent time freezing on test day 1 | Neither IC8701 nor ZL006 altered the percent time freezing | Neither IC8701 nor ZL006 altered the percent time freezing | significant attenuation of conditioned fear response | improvement in social interaction duration | disrupt nNOS downstream signaling | not observed a significant difference | not observed a significant difference | effect on cGMP production induced by a NO donor [2]: no effect; attenuation of NMDA-induced increases in cGMP [3]: dose-dependently attenuated NMDA-induced increases in cGMP; IC50 ([3]; Rattus norvegicus, Hippocampal neuron, n=14-20, FIG. 6, read-out: IC50, attenuation of NMDA-induced increase of cGMP): 2.7 µM; disruption of PSD95-cypin protein-protein interaction [7]: does not disrupt
O=C(O)c1ccc(NCc2cc(Cl)cc(Cl)c2O)cc1O [ZL006] | Neither IC8701 nor ZL006 altered the percent time freezing | identical acquisition of conditioned fear | normal patterns of fear extinction | reduced the percent time freezing on test day 1 | Neither IC8701 nor ZL006 altered the percent time freezing | Neither IC8701 nor ZL006 altered the percent time freezing | significant attenuation of conditioned fear response | not observed a significant difference | disrupt nNOS downstream signaling | not observed a significant difference | not observed a significant difference | co-immunoprecipitation of nNOS-Capon interaction (nNOS-CAPON interaction): does not inhibit; co-immunoprecipitation of PSD95-SynGAP interaction (PSD95-SynGAP interaction): does not inhibit; NOS activity / NOS catalytic activity [9]: does not inhibit NOS activity; freezing, extinction ([4]; 10 mg/kg i.p., after the acquisition day, 1 hour prior to the consolidation day, FIG. 3): improved extinction; freezing, recall ([4]; 10 mg/kg i.p., after the acquisition day, 1 hour prior to the consolidation day, data not shown): improved recall; co-immunoprecipitation of nNOS-PSD95 complex (nNOS-PSD95 complex): inhibits the in co-immunoprecipitation of nNOS-PSD95 complex; NMDAR-dependent excitotoxicity (lactate dehydrogenase release) and cerebral ischemia ([6]; cultured neurons exposed to 50 μM glutamate with 10 μM glycine for 30 min): prevents NMDAR-dependent excitotoxicity and cerebral ischemia; penetration in the CNS (concentrations in serum, CSF and brain tissue) [10]: significant penetration in the CNS; nNOS-PSD95 interaction in the non-ischemic cortex (nNOS-PSD95 interaction; non-ischemic cortex, n=3, ZL006 vs vehicle): did not show a significant effects; ischemic induced increase in nNOS-PSD95 interaction (nNOS-PSD95 interaction; wild type mice, MCAO and reperfusion): blocks the ischemic induced increase in nNOS-PSD95 interaction; NMDARs EPSCs [11]: does not inhibit NMDARs EPSCs
